US7511026B2, “Therapeutic agent for nerve damage” (Seikagaku Corporation, priority 2003, dated 2009)

Legend:
Type in all cases: in vivo, Wister rats
[1] = test system: spinal cord injury, slightly injured model; experiment: Histopathologic evaluation of injured spinal cord (Kluver-Barrera staining), slightly injured model
Procedure: Wister rats (SPF, male) were used as animals, and each body was shaved from the neck to the hip using an electric hair clipper under pentobarbital (50 mg/kg weight) anesthesia and cleaned with 70% ethanol and Isodine (manufactured by Meiji Seika Kaisha, Ltd.). The dorsal skin was incised to expose thoracic vertebra from T5 to T10, and hemilaminectomy of the sixth thoracic vertebra (T6 thoracic vertebra) was performed to make a small incision in the dura mater, followed by regional anesthesia with xylocaine (manufactured by Astra Zeneca). Subsequently, two models were prepared as follows: a spatula (the tip of which had been processed into 0.3 mm) was inserted to the T6 position from the dorsal until the tip reached the abdominal centrum and maintained for 10 minutes to injure the spinal cord (slightly injured model), while a tweezer (the tip of which had been processed into 0.3 mm) was inserted until the tip reached the abdominal centrum, and the portion was pinched from both sides for 10 seconds to injure the spinal cord (seriously injured model). A respirator was used only when spinal cord evoked potentials were measured. The respirator was inserted into the windpipe under 1.0 to 2.0% halothane anesthesia and stabilized with a muscle relaxant. After the injury, HA4 (6 μl) was immediately administered using a microsyringe (25 μl; manufactured by Ito Seisakusyo Co., Ltd.) into the dura mater. Thereafter, the tip (OD: 0.3 mm) of a tube that was filled with HA4 and connected with an osmotic pump (model 1002, manufactured by Alzet) was placed under the dura mater of the rostral in the injured portion, and HA4 was continuously administered for 7 days. Meanwhile, 5 minutes, 2 hours, 4 hours, and 6 hours after the injury, 30 mg/kg of methylprednisolone sodium succinate (MPSS, manufactured by Pharmacia) was administered into the tail vein as a positive control. For separating the injured portion from the surrounding tissues, a gelatin sponge (Gelform; manufactured by Pharmacia) was placed, and the rat was brought back to a feeding gauge after the wound had been sewn. […]

[2] = test system: spinal cord injury, slightly injured model; experiment: Spinal cord evoked potential (SCEP), slightly injured model; conditions: HA4 60 μg/animal/day, 7 days after injury
Procedure: (§1) Wister rats (SPF, male) were used as animals, and each body was shaved from the neck to the hip using an electric hair clipper under pentobarbital (50 mg/kg weight) anesthesia and cleaned with 70% ethanol and Isodine (manufactured by Meiji Seika Kaisha, Ltd.). The dorsal skin was incised to expose thoracic vertebra from T5 to T10, and hemilaminectomy of the sixth thoracic vertebra (T6 thoracic vertebra) was performed to make a small incision in the dura mater, followed by regional anesthesia with xylocaine (manufactured by Astra Zeneca). […] A respirator was used only when spinal cord evoked potentials were measured. […]
(§2) 7 days after the spinal cord injury, the spinal cord evoked potentials were determined. […] Then, the spinal cord evoked potential (SCEP) was measured, and the “mean±SD” was calculated. The resultant potentials were evaluated using the amplitude of the first potential as an indicator. […]

spinal cord injury model = experiment: Evaluation on performance status (walking) after spinal cord injury; conditions: 7 days after the administration; PBS-administered group showed difficulty in walking
Procedure: Wister rats (SPF, male) were used as animals, and each body was shaved from the neck to the hip using an electric hair clipper under pentobarbital (50 mg/kg weight) anesthesia and cleaned with 70% ethanol and Isodine (manufactured by Meiji Seika Kaisha, Ltd.). The dorsal skin was incised to expose thoracic vertebra from T5 to T10, and hemilaminectomy of the sixth thoracic vertebra (T6 thoracic vertebra) was performed to make a small incision in the dura mater, followed by regional anesthesia with xylocaine (manufactured by Astra Zeneca). Subsequently, two models were prepared as follows: a spatula (the tip of which had been processed into 0.3 mm) was inserted to the T6 position from the dorsal until the tip reached the abdominal centrum and maintained for 10 minutes to injure the spinal cord (slightly injured model), while a tweezer (the tip of which had been processed into 0.3 mm) was inserted until the tip reached the abdominal centrum, and the portion was pinched from both sides for 10 seconds to injure the spinal cord (seriously injured model). A respirator was used only when spinal cord evoked potentials were measured. The respirator was inserted into the windpipe under 1.0 to 2.0% halothane anesthesia and stabilized with a muscle relaxant. […]

[3] = test system: spinal cord injury, seriously injured model (II); experiment: Spinal cord evoked potential (SCEP), seriously injured model (II); conditions: HA4 6.0 μg/animal/day, vs physiological saline-administered group, p<0.05
Procedure: as §1, §2

[4] = test system: spinal cord injury, severely injured model (II); experiment: Hind limb motor function test (BBB scale), severely injured model (II); conditions: HA4 6 μg/day, over 1 to 7 days after the spinal cord injury, P<0.0001 vs physiological saline-administered group
Procedure: Wister rats (SPF, male) were used as animals, and each body was shaved from the neck to the hip using an electric hair clipper under pentobarbital (50 mg/kg weight) anesthesia and cleaned with 70% ethanol and Isodine (manufactured by Meiji Seika Kaisha, Ltd.). The dorsal skin was incised to expose thoracic vertebra from T5 to T10, and hemilaminectomy of the sixth thoracic vertebra (T6 thoracic vertebra) was performed to make a small incision in the dura mater, followed by regional anesthesia with xylocaine (manufactured by Astra Zeneca). Subsequently, two models were prepared as follows: a spatula (the tip of which had been processed into 0.3 mm) was inserted to the T6 position from the dorsal until the tip reached the abdominal centrum and maintained for 10 minutes to injure the spinal cord (slightly injured model), while a tweezer (the tip of which had been processed into 0.3 mm) was inserted until the tip reached the abdominal centrum, and the portion was pinched from both sides for 10 seconds to injure the spinal cord (seriously injured model). A respirator was used only when spinal cord evoked potentials were measured. […] According to the method described by Basso et al., two test examiners individually evaluated blindly using the Basso-Beeattie-Bresnahan (BBB) scale, and the mean values were defined as the final score (FIG. 13).

[5] = test system: spinal cord injury, severely injured model (II); experiment: Balance beam and metal gauze crossing tests, severely injured model (II); conditions: 7 days after spinal cord injury, mean of four crossings, P<0.0001 vs physiological saline-administered group
Procedure: Wister rats (SPF, male) were used as animals, and each body was shaved from the neck to the hip using an electric hair clipper under pentobarbital (50 mg/kg weight) anesthesia and cleaned with 70% ethanol and Isodine (manufactured by Meiji Seika Kaisha, Ltd.). The dorsal skin was incised to expose thoracic vertebra from T5 to T10, and hemilaminectomy of the sixth thoracic vertebra (T6 thoracic vertebra) was performed to make a small incision in the dura mater, followed by regional anesthesia with xylocaine (manufactured by Astra Zeneca). Subsequently, two models were prepared as follows: a spatula (the tip of which had been processed into 0.3 mm) was inserted to the T6 position from the dorsal until the tip reached the abdominal centrum and maintained for 10 minutes to injure the spinal cord (slightly injured model), while a tweezer (the tip of which had been processed into 0.3 mm) was inserted until the tip reached the abdominal centrum, and the portion was pinched from both sides for 10 seconds to injure the spinal cord (seriously injured model). A respirator was used only when spinal cord evoked potentials were measured. […] Then, the numbers of slips in the hind limb were recorded, and evaluated by the mean value (FIG. 12). As for the sham surgery group prepared by making a small incision in the dura mater (Sham), the number of slips in the hind limb was also determined.

[6] = test system: spinal cord injury, seriously injured model (I); experiment: Spinal cord evoked potential (SCEP), seriously injured model (I); conditions: for SCEP amplitude (first potential): 7 days after injury, vs PBS-administered group
Procedure: Wister rats (SPF, male) were used as animals, and each body was shaved from the neck to the hip using an electric hair clipper under pentobarbital (50 mg/kg weight) anesthesia and cleaned with 70% ethanol and Isodine (manufactured by Meiji Seika Kaisha, Ltd.). The dorsal skin was incised to expose thoracic vertebra from T5 to T10, and hemilaminectomy of the sixth thoracic vertebra (T6 thoracic vertebra) was performed to make a small incision in the dura mater, followed by regional anesthesia with xylocaine (manufactured by Astra Zeneca). Subsequently, two models were prepared as follows: a spatula (the tip of which had been processed into 0.3 mm) was inserted to the T6 position from the dorsal until the tip reached the abdominal centrum and maintained for 10 minutes to injure the spinal cord (slightly injured model), while a tweezer (the tip of which had been processed into 0.3 mm) was inserted until the tip reached the abdominal centrum, and the portion was pinched from both sides for 10 seconds to injure the spinal cord (seriously injured model). A respirator was used only when spinal cord evoked potentials were measured. The respirator was inserted into the windpipe under 1.0 to 2.0% halothane anesthesia and stabilized with a muscle relaxant.
After the injury, HA4 (6 μl) was immediately administered using a microsyringe (25 μl; manufactured by Ito Seisakusyo Co., Ltd.) into the dura mater. Thereafter, the tip (OD: 0.3 mm) of a tube that was filled with HA4 and connected with an osmotic pump (model 1002, manufactured by Alzet) was placed under the dura mater of the rostral in the injured portion, and HA4 was continuously administered for 7 days. […]
as §2

CC(=O)N[C@H]1[C@H](O[C@H]2[C@H](O)[C@@H](O)[C@H](O[C@H]3[C@H](O)[C@@H](CO)OC(O)[C@@H]3NC(C)=O)O[C@@H]2C(=O)O)O[C@H](CO)[C@@H](O)[C@@H]1O[C@@H]1O[C@H](C(=O)O)[C@@H](O)[C@H](O)[C@H]1O (stereo partly shown) [HA4, GlcA-GlcNAc-GlcA-GlcNAc]
number of axons crossing from white matter to gray matter ([1]; 5 mm range in the rostral/caudal direction in the injured site, vs physiological saline-administered group): significantly larger
tissue injury, edema and myelin loss in white matter ([1]; Kluver-Barrera staining, PBS group showed edema and myelin loss 1 cm or more from the injured site): the tissue injury was present only near the injured site, and edema and myelin loss were rarely observed in white matter
injured area (damaged area) ([1]; coronal plane including the central canal, vs PBS-administered group): significantly smaller
SCEP amplitude level relative to normal (no injury-no treatment group) [2]: the same as the normal level
SCEP amplitude (first potential) ([2]; intradural, continuous 7 days, vs PBS-administered group, p<0.05): decrease of SCEP amplitude was significantly attenuated or the SCEP amplitude was recovered
performance status (walking) (spinal cord injury model): walking approximately similar to that of the normal rat was observed
SCEP amplitude [3]: significantly recovered
motor function in the hind limb (BBB scale) [4]: significantly recovered
number of slips in the hind limb, balance beam crossing [5]: significantly low
number of slips in the hind limb, metal gauze crossing [5]: significantly low
SCEP amplitude (first potential) ([6]; HA4 0.6 μg/animal/day, p<0.05): decrease of the SCEP amplitude was significantly attenuated or the SCEP amplitude was recovered
SCEP effect compared with MPSS ([6]; HA4 6 μg/animal/day vs MPSS 30 mg/kg x 4 times, tail vein): stronger effect than that of MPSS
SCEP amplitude (first potential) ([6]; HA4 6 μg/animal/day, p<0.001, same level as the normal level): decrease of the SCEP amplitude was significantly attenuated or the SCEP amplitude was recovered
